Measurements taken from patent US12509446B2, “FYN and VEGFR2 kinase inhibitors” (ROTTAPHARM BIOTECH S.R.L., priority 2019, dated 2025).

Assays:
[1] = tested on: MMP3; experiment: Gene expression in rat articular chondrocytes under IL-1β stimulation, MMP3; assay type: cell-based; set-up: key to MMP3 gene expression, no effect: ne: no effect; conditions: for MMP3 gene expression, percentage of inhibitory effect at the highest non toxic concentration: 3 μM; for MMP3 gene expression, percentage of inhibitory effect at the highest non toxic concentration / MMP3 gene expression, no effect: 24 h
Description: (§1) For gene expression analysis, 10 days after plating, the medium was changed and substituted with DMEM GlutaMAX I 0.4% to synchronize the cells. The cells were then co-treated in DMEM GlutaMAX I 0.4% with different concentrations of the test compounds and […] at a final concentration of 2 ng/ml for 6 h and 24 h. The test compound concentrations used have been chosen on the basis of the toxicity data.
(§2) At the end of the incubation, the supernatant was discarded, the cell were washed with cold PBS1X and scraped with 200 μl of RNA lysis buffer 1X (Nucleic Acid Purification Lysis Solution, Applied Biosystems).
(§3) Total RNA was purified using ABI Prism™ 6100 Nucleic Acid PrepStation (Applied Biosystems) following manufacturer's instructions.
(§4) Total RNA was retrotranscribed using the High-Capacity cDNA Archive Kit (Applied Biosystems-Thermo Fisher Scientific) following manufacturer's instructions.
(§5) The specific probes and primers for RealTime PCR were from Applied Biosystems (Thermo Fisher Scientific) as Assays-on-Demand™, while the probe and primers for the endogenous control 18S was a PDAR (Pre-Developed TaqMan® Assay Reagents—Applied Biosystems-Thermo Fisher Scientific).
(§6) The assays were designed to amplify target cDNA without amplifying genomic DNA.
(§7) Gene expression analysis for IL-1β, IL-6 and ADAMTS-5 were performed at 6 h incubation, while the gene expression analysis for MMP3, MMP13 and COX2 were performed at 24 h incubation.
(§8) For each compound the maximal concentration tested was dependent on the toxicity results obtained on primary rat chondrocytes.
(§9) The data analysis, with the normalisation on the amplified values for the 18S was done following the specific instruction of Applied Biosystems for the relative quantification of gene expression.

[2] = tested on: NF-kB; experiment: Gene reporter (GR) assay, NF-kB activation after TNFα in JB6 Cl 41-5a (P+) cells; assay type: cell-based, murine; conditions: Mus musculus, JB6 Cl 41-5a, TNFα 2 ng/ml, non toxic concentrations; read-out: Gene reporter (GR) inhibition IC50
Text: To determine if the compounds of the invention were active also in a cellular model, a gene reporter assay was established in a cell line (JB6 Cl 41-5a (P+)) know to activate Fyn kinase via an inflammatory stimuli (TNFα). GR assay measures the activation of the nuclear transcription factor NF-kB, situated down-stream the Fyn activation pathway. Products active in this analysis has to penetrate in the cell and inhibit the activation pathway of NF-kB.
The murine epithelial cell line JB6 Cl 41-5a (P+) (ATCC® Cat. #CRL-2010) was stably transfected with the pGL4.32[luc2P/NFkB-RE/Hygro] vector (Promega). Clonal selection was achieved by limiting with 80 μg/ml Hygromycin B. The clones were tested for their response to TNFα stimulus.
JB6(P+) NFkB-RE-luc2P transfected cells were used for the analysis of NF-kB activity modulation, after TNFα stimulation, by Fyn-inhibitors.
Cells were pre-treated with the different compounds for 1 h and then stimulated with 2 ng/ml TNFα for 4 h. Each tested condition was analyzed in quadruplicate.
The luciferase analysis was performed with ONE-Glo™+ToxLuciferase Reporter and Cell Viability Assay kit (Promega).

[3] = tested on: IL-1β; experiment: Gene expression in rat articular chondrocytes under IL-1β stimulation, IL-1β; assay type: cell-based; conditions: for IL-1β gene expression, percentage of inhibitory effect at the highest non toxic concentration: 6 h
Description: as §1, §2, §3, §4, §5, §6, §7, §8, §9

[4] = tested on: MMP13; experiment: Gene expression in rat articular chondrocytes under IL-1β stimulation, MMP13; assay type: cell-based; set-up: key to MMP13 gene expression, no effect: ne: no effect
Description: as §1, §2, §3, §4, §5, §6, §7, §8, §9

[5] = tested on: COX2; experiment: Gene expression in rat articular chondrocytes under IL-1β stimulation, COX2; assay type: cell-based; set-up: key to COX2 gene expression, no effect: ne: no effect; conditions: 24 h
[6] = tested on: bovine nasal septum cartilage; experiment: Inhibition of cartilage degradation (GAG release) induced by IL-1α in a bovine in vitro model; assay type: cell-based; set-up: key to Bovine cartilage degradation induced by IL-1α, no effect: ne: no effect; conditions: for inhibition at 3 µM / inhibition at 1 µM: Bos taurus, read-out: Bovine cartilage degradation induced by IL-1α, % inhibitory effect at max concentration
Description: Nasal septum cartilage was collected from an eight months-old male bovine in a local slaughterhouse.
Tissue was sprayed with ethanol 70% and immediately put in sterile PBS with Antibiotic-Antimycotic stabilized solution (PBS-AASS). It was cut in order to obtain small punches (diameter 2 mm, 1 mm-thick). washed with sterile PBS-AASS, the slices were transferred in a 96X well plate (one piece per well) in DMEM 10%+AASS. 48 h later the cartilage was stimulated in white DMEM+0.1% BSA+AASS with IL-1α […] in the absence or presence of the studied compounds.
The compounds concentration used in this analysis was chosen depending on the toxicity results obtained in rat primary chondrocytes at 48 h of incubation.
After 48 h stimulation, the culture medium was collected and stored at −80° C. The cartilage punches were digested with papain at 65° C. for 2 h in phosphate buffer (0.05M pH 6.5 with 2 mM N-acetil-L-cisteine and 2 mM EDTA).
The glycosaminoglycan (GAG) determination was done by a colorimetric assay with 1,9 dimethyl methylene blue (DMB).
Digested cartilage samples were diluted in PBS-BSA 1%. To 100 μl of diluted samples or standard we added 100 μl DMB 2X. After 5-20 min incubation the samples were read at 590 nm (Titertek Multiscan Plus).
The cartilage degradation induced by IL-1α was expressed as: GAG (medium)/total GAG (medium+cartilage)×100

[7] = tested on: IL-6; experiment: Gene expression in rat articular chondrocytes under IL-1β stimulation, IL-6; assay type: cell-based; conditions: for IL-6 gene expression, percentage of inhibitory effect at the highest non toxic concentration: 6 h
Description: as §1, §2, §3, §4, §5, §6, §7, §8, §9

[8] = tested on: ADAMTS-5; experiment: Gene expression in rat articular chondrocytes under IL-1β stimulation, ADAMTS-5; assay type: cell-based; conditions: for ADAMTS-5 gene expression, percentage of inhibitory effect at the highest non toxic concentration: 6 h; for IC50: Rattus norvegicus, Chondrocyte, 6 h incubation
Description: as §1, §2, §3, §4, §5, §6, §7, §8, §9

[9] = target: Fyn (Homo sapiens (Human), UniProt P06241); experiment: Z′-LYTE in vitro Fyn kinase activity assay; assay type: biochemical; conditions: ATP 50 μM; read-out: FYN KINASE INHIBITION IC50
Sequence of Fyn (P06241 whole entry): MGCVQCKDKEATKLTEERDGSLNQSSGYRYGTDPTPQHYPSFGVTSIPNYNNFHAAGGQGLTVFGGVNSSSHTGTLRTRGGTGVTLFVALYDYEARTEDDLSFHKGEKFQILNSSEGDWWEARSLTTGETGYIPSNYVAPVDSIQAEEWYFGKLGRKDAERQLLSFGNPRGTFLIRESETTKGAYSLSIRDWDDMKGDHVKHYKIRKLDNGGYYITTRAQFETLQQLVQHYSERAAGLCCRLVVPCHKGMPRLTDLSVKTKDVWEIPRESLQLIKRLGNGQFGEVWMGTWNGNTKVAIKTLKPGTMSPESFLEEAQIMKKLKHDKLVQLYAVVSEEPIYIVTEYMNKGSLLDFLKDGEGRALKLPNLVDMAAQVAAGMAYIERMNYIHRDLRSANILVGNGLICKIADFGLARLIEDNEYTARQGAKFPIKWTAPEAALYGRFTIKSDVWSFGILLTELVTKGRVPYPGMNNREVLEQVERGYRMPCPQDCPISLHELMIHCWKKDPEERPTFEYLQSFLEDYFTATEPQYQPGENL
Description: The Fyn kinase inhibitory activity of representative examples of compounds of Formula (1) was evaluated by Z′-LYTE™ Kinase Assay Platform (Invitrogen). Compounds were evaluated towards active Fyn (full length active, molecular weight 87.1 kDa; Invitrogen). […] Samples representing the 0% inhibition (or total enzymatic activity) were in the presence of compound diluent (1% DMSO final in Reaction Buffer 50 mMHepes, 10 mM MgCl2, 1 mM EGTA, 0.01% Brij-35, pH 7.5). The kinase reaction was carried out in a total volume of 10 μl, for 60 minutes at 25° C. The 0% Phosphorylation (i.e. no ATP) and 100% Phosphorylation Assay Controls, included in each plate, allowed to calculate the percent phosphorylation achieved in the specific reaction well. Results are expressed as percentage of inhibition and the IC50 values were calculated by non-linear curve fitting using GraphPad™ Prism software (version 6 for Windows).

[10] = target: VEGFR2 (Homo sapiens (Human), UniProt P35968); experiment: In vitro VEGFR2 kinase activity assay (Eurofins Cerep); assay type: biochemical; conditions: read-out: VEGFR2 KINASE INHIBITION IC50
Sequence of VEGFR2 (P35968 20-1356): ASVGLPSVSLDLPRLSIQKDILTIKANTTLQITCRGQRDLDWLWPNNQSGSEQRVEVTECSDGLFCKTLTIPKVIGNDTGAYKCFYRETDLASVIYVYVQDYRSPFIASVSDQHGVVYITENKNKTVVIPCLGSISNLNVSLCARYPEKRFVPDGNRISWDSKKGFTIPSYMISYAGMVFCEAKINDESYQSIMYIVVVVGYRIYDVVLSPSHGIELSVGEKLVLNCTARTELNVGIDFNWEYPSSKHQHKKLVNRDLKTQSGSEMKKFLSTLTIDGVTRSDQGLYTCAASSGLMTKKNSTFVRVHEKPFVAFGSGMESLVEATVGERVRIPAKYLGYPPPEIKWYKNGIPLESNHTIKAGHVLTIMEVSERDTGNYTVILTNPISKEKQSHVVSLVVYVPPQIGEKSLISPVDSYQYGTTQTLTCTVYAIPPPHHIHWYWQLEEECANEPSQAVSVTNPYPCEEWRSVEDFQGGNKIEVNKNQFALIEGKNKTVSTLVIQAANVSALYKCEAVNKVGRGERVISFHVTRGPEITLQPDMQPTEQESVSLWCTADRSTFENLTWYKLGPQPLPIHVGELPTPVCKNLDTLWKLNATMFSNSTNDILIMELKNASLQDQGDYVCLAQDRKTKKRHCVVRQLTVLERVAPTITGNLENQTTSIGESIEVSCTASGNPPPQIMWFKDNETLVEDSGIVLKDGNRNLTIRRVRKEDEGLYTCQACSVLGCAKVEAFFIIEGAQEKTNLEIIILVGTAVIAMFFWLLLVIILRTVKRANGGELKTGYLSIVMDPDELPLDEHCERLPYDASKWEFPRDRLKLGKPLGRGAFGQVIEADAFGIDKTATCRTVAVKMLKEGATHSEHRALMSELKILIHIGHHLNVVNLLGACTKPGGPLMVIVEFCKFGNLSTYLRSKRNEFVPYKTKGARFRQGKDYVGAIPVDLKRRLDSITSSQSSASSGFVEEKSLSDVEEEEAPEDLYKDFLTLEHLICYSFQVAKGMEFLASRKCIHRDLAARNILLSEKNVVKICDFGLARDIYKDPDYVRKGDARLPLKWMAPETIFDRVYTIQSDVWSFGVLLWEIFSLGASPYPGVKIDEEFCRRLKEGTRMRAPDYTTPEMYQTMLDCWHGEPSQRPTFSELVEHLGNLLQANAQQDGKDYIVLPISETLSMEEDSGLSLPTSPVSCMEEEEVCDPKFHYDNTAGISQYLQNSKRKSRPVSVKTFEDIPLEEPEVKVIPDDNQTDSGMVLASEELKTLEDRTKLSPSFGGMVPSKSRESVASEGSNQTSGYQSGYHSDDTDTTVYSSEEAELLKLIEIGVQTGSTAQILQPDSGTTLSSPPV
Description: The VEGFR2 kinase inhibitory activity of representative examples of compounds of Formula (I) assays was evaluated in Eurofins Cerep (France). The concentration range of the inhibitors under investigation was from 10^−8 M up to 10^−5 M final concentration. Some compounds were re-tested in a concentration-range starting from 10^−9 M. The results are expressed as a percent of control activity (in the absence of test compound) and the IC50 values were determined by non-linear regression analysis of the inhibition/concentration curves generated with mean replicate values.

[11] = tested on: rat primary articular chondrocytes; experiment: Toxicity analysis (MTT) in rat primary chondrocytes; conditions: for First toxic concentration at 24 h: rat primary chondrocytes
Description: Purified chondrocytes were resuspended in DMEM glutaMAX 10% and plated in a 96X well plate for toxicity analysis and in a 6X well plate for gene expression analysis.
For toxicity analysis cells were then treated with the different compounds for 24 and 48 h. At the end of the incubation time, the medium was removed and was substituted with a mixture 10:1 of DMEM glutaMAX 10%—MTT (2 mg/ml) for 1 h at 37° C. in the cell incubator. After this incubation, the precipitated salt was dissolved with 100 μl of DMSO and the plate was read at 540 nm. The toxicity analysis were performed to decide the maximal non toxic concentration of each compound used in the gene expression assay.

[12] = Rattus norvegicus, Chondrocyte, 6 h incubation
[13] = Rattus norvegicus, Chondrocyte, 24 h incubation

Row | Structure (SMILES) | MMP3 gene expression, percentage of inhibitory effect at the highest non toxic concentration [1] | IC50 [2] | IL-1β gene expression, percentage of inhibitory effect at the highest non toxic concentration ([3]; 3 μM) | MMP13 gene expression, percentage of inhibitory effect at the highest non toxic concentration ([4]; 3 μM, 24 h) | COX2 gene expression, percentage of inhibitory effect at the highest non toxic concentration ([5]; 3 μM) | inhibition at 3 µM [6] | IL-6 gene expression, percentage of inhibitory effect at the highest non toxic concentration ([7]; 3 μM) | ADAMTS-5 gene expression, percentage of inhibitory effect at the highest non toxic concentration ([8]; 3 μM) | IC50 [9] | IC50 [10] | First toxic concentration at 48 h in rat primary chondrocytes [11] | First toxic concentration at 24 h [11] | inhibition at 1 µM [6] | MMP3 gene expression, no effect [1] | IC50 [8] | also measured
1 | Cc1ccc(NC(=O)c2cccc(C(F)F)c2)cc1CCc1cc(Nc2cnccn2)[nH]n1 [Compound 33, 3-(difluoromethyl)-N-(4-methyl-3-(2-(5-(pyrazin-2-ylamino)-1H-pyrazol-3-yl)ethyl)phenyl) benzamide] | 3 μM 81% | 363 nM | 3 μM 93% | 3 μM 94% | 3 μM 89% | 91% | 3 μM 100% | 3 μM 90% | 16 nM | < 10 nM | 10 µM | 10 µM |  |  |  | 
2 | Cc1nccnc1Nc1cc(CCc2cc(NC(=O)c3cccc(C(F)(F)F)c3)ccc2F)n[nH]1 [Compound 15, N-(4-fluoro-3-(2-(5-((3-methylpyrazin-2-yl)amino)-1H-pyrazol-3-yl)ethyl)phenyl)-3-(trifluoromethyl)benzamide] | 3 μM 90% |  | 3 μM 98% | 3 μM 99% | 3 μM 97% |  | 3 μM 100% | 3 μM 96% | 18 nM | < 10 nM | 3 µM | 10 µM | 96% |  |  | Inhibitory effect on the GAG release ([6]; at max concentration): 95-100%
3 | Cc1ccc(NC(=O)c2cccc(S(C)(=O)=O)c2)cc1CCc1cnc(Nc2cnccn2)s1 [Compound 48, N-(4-methyl-3-(2-(2-(pyrazin-2-ylamino)thiazol-5-yl)ethyl)phenyl)-3-(methylsulfonyl)benzamide] |  | 275 nM |  |  |  |  |  |  | 27 nM | 10 nM | 3 µM | 3 µM |  | ne |  | IC50 [3, 12]: 600 nM; MMP13 gene expression, no effect ([4]; 24 h): ne; COX2 gene expression, no effect [5]: ne; Bovine cartilage degradation induced by IL-1α, no effect [6]: ne; IC50 [7, 12]: 200 nM; ADAMTS-5 gene expression, percentage of inhibitory effect at the highest non toxic concentration ([8]; 1 μM): 1 μM 70%
4 | Cc1ccc(NC(=O)c2ccnc(C(C)(C)O)c2)cc1CCc1cc(Nc2cnccn2)[nH]n1 [Compound 5, 2-(2-hydroxypropan-2-yl)-N-(4-methyl-3-(2-(5-(pyrazin-2-ylamino)-1H-pyrazol-3-yl)ethyl)phenyl)isonicotinamide] |  | 3260 nM |  |  |  | 79% |  |  | 6 nM | < 10 nM | 10 µM | >10 µM |  | ne | 5500 nM | IL-1β gene expression, percentage of inhibitory effect at the highest non toxic concentration ([3]; 10 μM): 10 μM 84%; MMP13 gene expression, percentage of inhibitory effect at the highest non toxic concentration ([4]; 10 μM, 24 h): 10 μM 32%; COX2 gene expression, percentage of inhibitory effect at the highest non toxic concentration ([5]; 10 μM): 10 μM 43%; IL-6 gene expression, percentage of inhibitory effect at the highest non toxic concentration ([7]; 10 μM): 10 μM 89%
5 | Cc1ccc(NC(=O)c2cccc(C(F)(F)F)c2)cc1CCc1cnc(Nc2cnccn2)s1 [Compound 49, N-(4-methyl-3-(2-(2-(pyrazin-2-ylamino)thiazol-5-yl)ethyl)phenyl)-3-(trifluoromethyl) benzamide] |  | 422 nM |  |  |  |  |  |  | 143 nM |  | 3 µM | 3 µM | 35% |  | 200 nM | IC50 [1, 13]: 500 nM; IL-1β gene expression, percentage of inhibitory effect at the highest non toxic concentration ([3]; 1 μM): 1 μM 91%; IC50 [4, 13]: 240 nM; COX2 gene expression, percentage of inhibitory effect at the highest non toxic concentration ([5]; 1 μM): 1 μM 93%; IL-6 gene expression, percentage of inhibitory effect at the highest non toxic concentration ([7]; 1 μM): 1 μM 100%
